# Results published in patent US7455861B2, “Angelicae sinensis extracts useful for treatment of cancers” (priority 2004, dated 2008).
# Like-named read-outs stand apart in the source and are kept apart here.
# Legend:
# [1] = test system: DBTRG-05MG cells; test: s.c. xenograft human GBM tumors in nude mice, BP; assay type: in vivo, Foxn1 nude mice
# Protocol: The RG2 cells (rat GBM) and DBTRG-05MG cells (human GBM) were used in animal experiments to monitor the anti-tumor activities of AS-C and BP. Male F344 rat (230-260 g) and male Foxn1 nu/nu mice (10-12 weeks) were obtained from National Laboratory Animal Center (Taipei, Taiwan). All procedures were performed in compliance with the Standard Operation Procedures of the Laboratory Animal Center of Tzu Chi University (Hualien, Taiwan). Animals were kept under pathogen-free conditions and fed a standard laboratory diet. The DBTRG-05MG cells (human GBM) and RG2 cells (rat GBM) were prepared for nude mice xenografts and rat allogenics, respectively.
# Animals (Foxn1 nude mice) in six groups (6/group) were implanted subcutaneously (s.c.) with 1×10^6 DBTRG-05MG cells, and randomly treated with BP s.c. (70, 150, 300, 500, 800 mg/kg/day) or vehicle s.c. at a site remote (>2 cm) from the incubated tumor after tumor cell implantation, at day 4, 5, 6, 7 and 8 for all five dosages. Tumor size was measured every 2 days and tumor volume was calculated. Animals were sacrificed when tumor exceeded 1000 mm^3. Tumor growth was monitored for 3 months for those not sacrificed. Survival rate was followed for up to 200 days.
# [2] = test system: ETS-1; test: RT-PCR of ETS-1 in HUVEC; assay type: cell-based, human
# [3] = test system: J5; test: Cytotoxicity (IC50) on J5; assay type: cell-based; conditions: Homo sapiens
# Protocol: (§1) Human tumor cell lines (MCF-7, CL1-5, HT-29, Caco-2), human umbilical vascular endothelial cells (HUVEC), and human dermal fibroblasts (HDF) were tested for sensitivity on Angelicae sinensis extracts, ligustilide, n-butylidenephthalide and its derivatives in vitro. The DBTRG-05MG, BCM, HL-60 and J5 cells were grown in RPMI-1640 medium containing 10% fetal calf serum and 100 ng/ml penicillin and […] streptomycin at 37° C. in a humidified atmosphere with 5% CO2. The G5T/VGH, RG2, Ni 8, SVEC and Balb/3T3 cells were cultured in DMEM with 10% fetal calf serum and 100 ng/ml penicillin and […] streptomycin at 37° C. in 5% CO2. Mycoplasma infection of the culture cells was excluded by PCR screening methods before each experiment.
# (§2) The effects on cell viability after the treatments with different concentrations of the Angelicae sinensis extracts or the active components purified therefrom were evaluated by modified MTT assay in triplicate. Briefly, the cells (5×10^3) were incubated into 96-well plates containing 100 μl of a growth medium. The cells were permitted to adhere for 24 hours, then treated with 100 μl of the herbal extracts or the active components dissolved in the medium. The control contained DMSO of <0.02% (v/v). […] Absorbance at 550 nm of the solutions was measured with MRX Microtiter Plate Luminometer (DYNEX, USA). The absorbance of untreated cells was considered as 100%. […]
# [4] = test system: Caco-2; test: Cytotoxicity (IC50) on Caco-2; assay type: cell-based; conditions: Homo sapiens
# Protocol: as §1, §2
# [5] = test system: HCT15; test: Cytotoxicity (IC50) on HCT15; assay type: cell-based; conditions: Homo sapiens, HCT-15
# Protocol: The effects on cell viability after the treatments with different concentrations of the Angelicae sinensis extracts or the active components purified therefrom were evaluated by modified MTT assay in triplicate. Briefly, the cells (5×10^3) were incubated into 96-well plates containing 100 μl of a growth medium. The cells were permitted to adhere for 24 hours, then treated with 100 μl of the herbal extracts or the active components dissolved in the medium. The control contained DMSO of <0.02% (v/v). After 24, 48 and 72 h incubation, the drug-containing medium was replaced by 50 μl of fresh medium, and cells in each well were incubated in 50 μl of 400 μg/ml MTT for 6-8 h. The medium and MTT were removed later and 100 μl of DMSO was added to each well and to the control, to dissolve the soluble components. Absorbance at 550 nm of the solutions was measured with MRX Microtiter Plate Luminometer (DYNEX, USA). The absorbance of untreated cells was considered as 100%. To evaluate the effects of the extracts or the active components on cell growth rate of GBM cells, 5×10^3 exponentially growing cells were treated with different concentrations for 24, 48, or 72 h. The cytotoxicity of each test substance was determined as an IC50 value, which represents the drug concentration required to cause 50% inhibition. All experiments in this study were performed in triplicate.
compound,measurement,setting,value
"CCCC=C1OC(=O)c2ccccc21 [BP, n-Butylidenephthalide]",tumor growth compared with untreated group,"[1]; BP s.c. 70-800 mg/kg/day day 4-8, dose dependent, p<0.005 for 300 mg/kg",significant suppressions of tumor growth
same,survival period of nude mice,"[1]; BP s.c. 70-800 mg/kg/day, followed for up to 200 days",up to 200 days
same,Inhibition RT-PCR ETS-1,[2],53.13 µg/mL
same,Inhibition RT-PCR ETS-1,[2]; value in parentheses,(282.6 μM)
same,IC50,[3]; Table 2,15 to 20 µg/mL
same,IC50,"[3]; Table 2, value in parentheses",79.8 to 106 µM
same,IC50,"[4]; Table 1, value in parentheses",> 106 µM
same,IC50,"[4]; cancer cells, Table 1",> 20 µg/mL
same,IC50,[5]; Table 2,25 to 30 µg/mL
same,IC50,"[5]; Table 2, value in parentheses",133 to 160 µM
